SMILES strings stand for the structures.

As usually defined, the IC50 is the point on the concentration scale where inhibition reaches its midpoint.

Assay [1] deals with T1, human TRPV1 (Homo sapiens (Human), UniProt Q8NER1). In words: Capsaicin Activation Assay (intracellular Ca2+, FLIPR). It counts as cell-based. As to conditions: recombinant HEK293 cells expressing hTRPV1, 50 nM capsaicin. A digest of the protocol:
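Ca2+ fluorescence was recorded by FLIPR every 1 to 5 seconds in HEK293 cells, clonally selected for stable human TRPV1 expression and plated one day ahead. Test compounds came as serial dilutions of 10 mM DMSO stocks.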

For assay [2], the target named is T1, human TRPV1. In words: Acid Activation Assay (pH 5.0, intracellular Ca2+, FLIPR). The assay is classed as cell-based. As to conditions: percentage of the maximal pH 5.0-induced response remaining; recombinant HEK293 hTRPV1 cells; maximum concentration tested 37.5 μM. A digest of the protocol:
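Readout: peak [Ca2+]i fluorescence over baseline on FLIPR, expressed as percentage remaining of the maximal pH 5.0-evoked signal. Stable hTRPV1-HEK293 cells with Calcium-4 dye received compound (12 half-log concentrations, maximum 37.5 μM) 3 min before acidic pH 5.0 buffer.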

T1 sequence (Q8NER1 whole entry): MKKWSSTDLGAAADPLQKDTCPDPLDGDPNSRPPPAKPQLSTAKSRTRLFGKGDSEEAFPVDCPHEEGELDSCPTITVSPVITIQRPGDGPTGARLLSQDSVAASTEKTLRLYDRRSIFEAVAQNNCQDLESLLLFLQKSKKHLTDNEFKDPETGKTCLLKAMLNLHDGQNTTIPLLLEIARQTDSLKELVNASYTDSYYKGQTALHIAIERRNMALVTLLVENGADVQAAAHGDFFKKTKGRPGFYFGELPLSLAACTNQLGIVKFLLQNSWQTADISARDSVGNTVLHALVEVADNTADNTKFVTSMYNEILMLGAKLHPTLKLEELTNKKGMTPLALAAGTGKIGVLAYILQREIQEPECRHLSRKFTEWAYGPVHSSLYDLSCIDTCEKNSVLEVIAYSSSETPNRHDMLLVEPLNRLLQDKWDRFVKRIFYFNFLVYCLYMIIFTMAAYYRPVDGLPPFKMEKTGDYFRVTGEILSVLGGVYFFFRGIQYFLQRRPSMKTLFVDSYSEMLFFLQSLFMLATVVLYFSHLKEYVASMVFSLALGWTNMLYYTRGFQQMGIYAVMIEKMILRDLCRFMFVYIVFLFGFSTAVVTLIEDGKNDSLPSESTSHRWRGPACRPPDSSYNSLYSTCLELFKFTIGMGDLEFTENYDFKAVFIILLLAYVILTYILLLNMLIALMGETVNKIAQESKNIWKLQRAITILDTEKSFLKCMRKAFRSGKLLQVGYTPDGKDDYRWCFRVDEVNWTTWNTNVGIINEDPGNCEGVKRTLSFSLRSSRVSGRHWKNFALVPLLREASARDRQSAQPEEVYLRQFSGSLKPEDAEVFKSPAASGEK

As for `Cn1c(=O)ccc2c(NC(=O)N[C@@H]3CC(CF)(CF)Oc4ccccc43)cccc21` [Example 80, 1-[(4R)-2,2-bis(fluoromethyl)-3,4-dihydro-2H-chromen-4-yl]-3-(1-methyl-2-oxo-1,2-dihydroquinolin-5-yl)urea], the concentration for half-maximal inhibition (IC50) on human TRPV1 [1] is 0.063 µM. In addition, the “human TRPV1 H^+ (max % remain)” value on human TRPV1 [2] is listed as 45%.

`Cn1c(=O)ccc2c(NC(=O)N[C@@H]3CC(C)(C)Oc4c3ccc(F)c4F)cccc21` [Example 81, 1-[(4R)-7,8-difluoro-2,2-dimethyl-3,4-dihydro-2H-chromen-4-yl]-3-(1-methyl-2-oxo-1,2-dihydroquinolin-5-yl)urea]: on human TRPV1 [1], the half-inhibitory concentration (IC50) worked out at 0.053 µM. Also, the “human TRPV1 H^+ (max % remain)” value at human TRPV1 [2] worked out at 39%.

Turning to `Cn1c(=O)ccc2c(NC(=O)N[C@@H]3CCOc4ccc(F)cc43)cccc21` [Example 82, 1-[(4R)-6-fluoro-3,4-dihydro-2H-chromen-4-yl]-3-(1-methyl-2-oxo-1,2-dihydroquinolin-5-yl)urea], the IC50 on human TRPV1 [1] came to 0.25 µM. Besides, on human TRPV1 [2], the “human TRPV1 H^+ (max % remain)” value is on record as 56%.

As for `Cn1c(=O)ccc2c(NC(=O)N[C@@H]3CCc4cc(F)ccc43)cccc21` [Example 83, 1-[(1R)-5-fluoro-2,3-dihydro-1H-inden-1-yl]-3-(1-methyl-2-oxo-1,2-dihydroquinolin-5-yl)urea], the half-inhibitory concentration (IC50) on human TRPV1 [1] was 0.019 µM. In addition, on human TRPV1 [2], the “human TRPV1 H^+ (max % remain)” value was found to be 36%.

`Cn1c(=O)ccc2c(NC(=O)N[C@@H]3CC(C)(C)Oc4c3ccc(Cl)c4F)cccc21` [Example 85, 1-[(4R)-7-chloro-8-fluoro-2,2-dimethyl-3,4-dihydro-2H-chromen-4-yl]-3-(1-methyl-2-oxo-1,2-dihydroquinolin-5-yl)urea]: at human TRPV1 [1], the IC50 is 0.023 µM. Besides, at human TRPV1 [2], the “human TRPV1 H^+ (max % remain)” value was found to be 39%.

For `Cn1c(=O)ccc2c(NC(=O)N[C@@H]3CCc4cc(C(F)(F)F)ccc43)cccc21` [Example 86, 1-(1-methyl-2-oxo-1,2-dihydroquinolin-5-yl)-3-[(1R)-5-(trifluoromethyl)-2,3-dihydro-1H-inden-1-yl]urea], the half-inhibitory concentration (IC50) on human TRPV1 [1] came out at 0.01 µM. Further, on human TRPV1 [2], the “human TRPV1 H^+ (max % remain)” value turned out to be 23%.

In the case of `Cn1c(=O)ccc2c(NC(=O)N[C@@H]3CCOc4cc(OC(F)(F)F)ccc43)cccc21` [Example 87, 1-(1-methyl-2-oxo-1,2-dihydroquinolin-5-yl)-3-[(4R)-7-(trifluoromethoxy)-3,4-dihydro-2H-chromen-4-yl]urea], on human TRPV1 [1], the IC50 was found to be 0.028 µM. Also, on human TRPV1 [2], the “human TRPV1 H^+ (max % remain)” value amounted to 57%.

On to `Cn1c(=O)ccc2c(NC(=O)N[C@H]3CC4(CCC4)Oc4ccc(F)cc43)cccc21` [Example 88, 1-[(4S)-6-fluoro-3,4-dihydrospiro[chromene-2,1′-cyclobutan]-4-yl]-3-(1-methyl-2-oxo-1,2-dihydroquinolin-5-yl)urea], for which, at human TRPV1 [1], the IC50 worked out at 2.5 µM. Also, at human TRPV1 [2], the “human TRPV1 H^+ (max % remain)” value worked out at 51%.

Consider `Cn1c(=O)ccc2c(NC(=O)N[C@@H]3CC(C)(C)Oc4cc(Br)ccc43)cccc21` [Example 89, 1-[(4R)-7-bromo-2,2-dimethyl-3,4-dihydro-2H-chromen-4-yl]-3-(1-methyl-2-oxo-1,2-dihydroquinolin-5-yl)urea], for which, at human TRPV1 [1], the 50% inhibitory concentration (IC50) amounted to 0.031 µM. For the same compound, at human TRPV1 [2], the “human TRPV1 H^+ (max % remain)” value is given as 53%.

Consider `Cn1c(=O)ccc2c(NC(=O)N[C@@H]3C[C@](C)(C(F)(F)F)Oc4ccccc43)cccc21` [Example 90, 1-(1-methyl-2-oxo-1,2-dihydroquinolin-5-yl)-3-[(2R,4R)-2-methyl-2-(trifluoromethyl)-3,4-dihydro-2H-chromen-4-yl]urea], for which the half-inhibitory concentration (IC50) at human TRPV1 [1] is 0.011 µM. Besides, the “human TRPV1 H^+ (max % remain)” value on human TRPV1 [2] came to 45%.

With `Cn1c(=O)ccc2c(NC(=O)N[C@@H]3CC(C)(C)Oc4cc(C(F)(F)F)ccc43)cccc21` [Example 91, 1-[(4R)-2,2-dimethyl-7-(trifluoromethyl)-3,4-dihydro-2H-chromen-4-yl]-3-(1-methyl-2-oxo-1,2-dihydroquinolin-5-yl)urea], the IC50 at human TRPV1 [1] is 0.015 µM. In addition, on human TRPV1 [2], the “human TRPV1 H^+ (max % remain)” value is on record as 50%.

On to `Cn1c(=O)ccc2c(NC(=O)N[C@@H]3CC(CF)(CF)Oc4cc(C(F)(F)F)ccc43)cccc21` [Example 92, 1-[(4R)-2,2-bis(fluoromethyl)-7-(trifluoromethyl)-3,4-dihydro-2H-chromen-4-yl]-3-(1-methyl-2-oxo-1,2-dihydroquinolin-5-yl)urea], for which the IC50 at human TRPV1 [1] is 0.019 µM. Further, the “human TRPV1 H^+ (max % remain)” value on human TRPV1 [2] is 43%.

As for `Cn1c(=O)ccc2c(NC(=O)N[C@@H]3CC(C)(C)Oc4c3cccc4C(F)(F)F)cccc21` [Example 93, 1-[(4R)-2,2-dimethyl-8-(trifluoromethyl)-3,4-dihydro-2H-chromen-4-yl]-3-(1-methyl-2-oxo-1,2-dihydroquinolin-5-yl)urea], the concentration for half-maximal inhibition (IC50) at human TRPV1 [1] came to 0.039 µM. Besides, at human TRPV1 [2], the “human TRPV1 H^+ (max % remain)” value amounted to 47%.

Regarding `Cn1c(=O)ccc2c(NC(=O)N[C@@H]3CC(C)(C)Oc4c(F)cccc43)cccc21` [Example 94, 1-[(4R)-8-fluoro-2,2-dimethyl-3,4-dihydro-2H-chromen-4-yl]-3-(1-methyl-2-oxo-1,2-dihydroquinolin-5-yl)urea], the half-inhibitory concentration (IC50) at human TRPV1 [1] turned out to be 0.019 µM. For the same compound, the “human TRPV1 H^+ (max % remain)” value on human TRPV1 [2] worked out at 53%.

Take `Cn1c(=O)ccc2c(NC(=O)N[C@@H]3CC(CF)(CF)Oc4c(F)cccc43)cccc21` [Example 95, 1-[(4R)-8-fluoro-2,2-bis(fluoromethyl)-3,4-dihydro-2H-chromen-4-yl]-3-(1-methyl-2-oxo-1,2-dihydroquinolin-5-yl)urea]: the IC50 on human TRPV1 [1] worked out at 0.063 µM. Moreover, on human TRPV1 [2], the “human TRPV1 H^+ (max % remain)” value is reported as 54%.

Take `Cn1c(=O)ccc2c(NC(=O)N[C@@H]3CCc4cc(Cl)ccc43)cccc21` [Example 96, 1-[(1R)-5-chloro-2,3-dihydro-1H-inden-1-yl]-3-(1-methyl-2-oxo-1,2-dihydroquinolin-5-yl)urea]: the IC50 at human TRPV1 [1] is 0.008 µM. The “human TRPV1 H^+ (max % remain)” value on human TRPV1 [2] is listed as 37%.

`Cn1c(=O)ccc2c(NC(=O)N[C@@H]3CCOc4c3cccc4C(F)(F)F)cccc21` [Example 97, 1-(1-methyl-2-oxo-1,2-dihydroquinolin-5-yl)-3-[(4R)-8-(trifluoromethyl)-3,4-dihydro-2H-chromen-4-yl]urea]: the half-maximal inhibitory concentration (IC50) on human TRPV1 [1] was determined as 0.017 µM. Moreover, the “human TRPV1 H^+ (max % remain)” value on human TRPV1 [2] is listed as 26%.

With `Cn1c(=O)ccc2c(NC(=O)N[C@H]3CC(C)(C)Oc4ccc(F)cc43)cccc21` [Example 98, 1-[(4S)-6-fluoro-2,2-dimethyl-3,4-dihydro-2H-chromen-4-yl]-3-(1-methyl-2-oxo-1,2-dihydroquinolin-5-yl)urea], the IC50 on human TRPV1 [1] stood at 3.7 µM. Also, at human TRPV1 [2], the “human TRPV1 H^+ (max % remain)” value was 58%.

For the compound `O=C(Nc1cccc2[nH]c(=O)ccc12)N[C@@H]1CC(CF)(CF)Oc2cc(Cl)ccc21` [Example 99, 1-[(4R)-7-chloro-2,2-bis(fluoromethyl)-3,4-dihydro-2H-chromen-4-yl]-3-(2-oxo-1,2-dihydroquinolin-5-yl)urea], the IC50 at human TRPV1 [1] is 0.091 µM. For the same compound, the “human TRPV1 H^+ (max % remain)” value on human TRPV1 [2] came to 0%.

For `CC1(C)C[C@@H](NC(=O)Nc2ccc3c(c2)NC(=O)CO3)c2cccc(F)c2O1` [Example 100, 1-[(4R)-8-fluoro-2,2-dimethyl-3,4-dihydro-2H-chromen-4-yl]-3-(3-oxo-3,4-dihydro-2H-1,4-benzoxazin-6-yl)urea], the IC50 on human TRPV1 [1] is 0.31 µM. On human TRPV1 [2], the “human TRPV1 H^+ (max % remain)” value is given as 95%.

`CCC1(CC)C[C@@H](NC(=O)Nc2ccc3c(c2)NC(=O)CO3)c2cccc(F)c2O1` [Example 101, 1-[(4R)-2,2-diethyl-8-fluoro-3,4-dihydro-2H-chromen-4-yl]-3-(3-oxo-3,4-dihydro-2H-1,4-benzoxazin-6-yl)urea]: the IC50 on human TRPV1 [1] was found to be 0.095 µM. In addition, the “human TRPV1 H^+ (max % remain)” value at human TRPV1 [2] was found to be 105%.

`CCC1(CC)C[C@@H](NC(=O)Nc2ccc3c(c2)NC(=O)CO3)c2ccccc2O1` [Example 102, 1-[(4R)-2,2-diethyl-3,4-dihydro-2H-chromen-4-yl]-3-(3-oxo-3,4-dihydro-2H-1,4-benzoxazin-6-yl)urea]: the IC50 on human TRPV1 [1] came to 0.044 µM. Moreover, the “human TRPV1 H^+ (max % remain)” value on human TRPV1 [2] came to 99%.

`CCC1(CC)C[C@@H](NC(=O)Nc2ccc3c(c2)NC(=O)CO3)c2ccc(C(F)(F)F)cc2O1` [Example 103, 1-[(4R)-2,2-diethyl-7-(trifluoromethyl)-3,4-dihydro-2H-chromen-4-yl]-3-(3-oxo-3,4-dihydro-2H-1,4-benzoxazin-6-yl)urea]: at human TRPV1 [1], the IC50 came to 0.11 µM. The “human TRPV1 H^+ (max % remain)” value at human TRPV1 [2] was determined as 75%.

As to `CCC1(CC)C[C@@H](NC(=O)Nc2ccc3c(c2)NC(=O)CO3)c2ccc(Cl)cc2O1` [Example 104, 1-[(4R)-7-chloro-2,2-diethyl-3,4-dihydro-2H-chromen-4-yl]-3-(3-oxo-3,4-dihydro-2H-1,4-benzoxazin-6-yl)urea], the IC50 at human TRPV1 [1] is 0.2 µM. Besides, the “human TRPV1 H^+ (max % remain)” value at human TRPV1 [2] is reported as 80%.

For `CCC1(CC)C[C@@H](NC(=O)Nc2ccc3c(c2)NC(=O)CO3)c2ccc(Cl)c(Cl)c2O1` [Example 105, 1-[(4R)-7,8-dichloro-2,2-diethyl-3,4-dihydro-2H-chromen-4-yl]-3-(3-oxo-3,4-dihydro-2H-1,4-benzoxazin-6-yl)urea], the IC50 on human TRPV1 [1] is 0.46 µM. Besides, on human TRPV1 [2], the “human TRPV1 H^+ (max % remain)” value came to 79%.

Consider `CC1(C)C[C@@H](NC(=O)Nc2ccc3c(c2)NC(=O)CO3)c2ccc(C(F)(F)F)cc2O1` [Example 106, 1-[(4R)-2,2-dimethyl-7-(trifluoromethyl)-3,4-dihydro-2H-chromen-4-yl]-3-(3-oxo-3,4-dihydro-2H-1,4-benzoxazin-6-yl)urea], for which the IC50 at human TRPV1 [1] is 0.094 µM. Further, the “human TRPV1 H^+ (max % remain)” value at human TRPV1 [2] was found to be 98%.

(Values after US8969325B2, “TRPV1 antagonists” (AbbVie Inc., priority 2011, dated 2015).)
